Measurements: US8426369B2, “Prevention and treatment of colon cancer” (Rutgers, The State University of New Jersey, priority 2006, dated 2013)

Assays:
[1] = test system: mucin MUC2; assay: Mucin MUC2 immunostaining of colon sections; format: in vivo, male F344 rats; conditions: 40 ppm in diet, AOM-treated rats
Protocol: Animals were treated as described in Example 27. Colon samples from each group were harvested at autopsy and fixed in 10% formalin for 24 hr. They were sectioned into 8 to 10 segments, paraffin embedded, and microtomed into 4 μm thick tissue sections. The slides were incubated overnight at room temperature with antibody to proliferating cell nuclear antigen (PCNA) (1:1000 diluted, BD Pharmingen, San Diego, Calif.), iNOS (1:100 diluted, Santa Cruz Biotechnology, Santa Cruz, Calif.), or mucin MUC2 (1:250 diluted, Santa Cruz Biotechnology, Santa Cruz, Calif.).
The slides were incubated with the biotinylated secondary antibody, and then with avidin/biotinylated peroxidase complex for 30 min at room temperature (Vector Labs, Burlingame, Calif.), and were incubated with […] (DAB) substrate. The sections were then counter-stained with Modified Harris Hematoxylin. The images were taken randomly at 400× using Zeiss AxioCam HRc camera fitted to a Zeiss Axioskope 2 Plus microscope. A positive reaction is noted by a reddish brown precipitate in the nucleus for PCNA, in the cytoplasm for iNOS or in the colon crypts for mucin MUC2.

[2] = test system: HT-29 cells; assay: [3H]Thymidine incorporation cell proliferation assay in HT-29 cells; format: cell-based, human; conditions: Homo sapiens, HT-29, 30 μM at 3 days, read-out: inhibition of DNA synthesis
Protocol: The stilbenes illustrated in FIG. 4 were also used to investigate their ability to inhibit cell proliferation in HT-29 cell line. In this experiment, HT-29 cells (20,000 cells/well in 24-well plate) were treated with the respective stilbenes (each used either at 30 μM or 3 μM) in 10% FBS/DMEM for three days.
Human colon carcinoma cell lines HT-29 was obtained from the American Type Culture Collection (Manassas, Va.). The cells were maintained in Dulbecco's modification of Eagle's medium (DMEM) supplemented with 10% FBS and 1% penicillin/streptomycin at 37° C. and 5% CO2. The cytokine mixture, consisting of 10 ng/ml of TNF-α, IFN-γ and LPS, was used to induce iNOS and COX-2, unless otherwise mentioned. The cells were treated with the test compound either alone or in combination with cytokines for different time intervals and harvested for protein or RNA.
HT-29 cells were plated at a density of 20,000 cells/well in a 24 well plate and treated with varying concentrations of pterostilbene for a period of 1, 2 or 3 days at 37° C. Before harvest, the cells were incubated with 1 μCi [^3H]thymidine for 4 h at 37° C. and were washed with phosphate buffered saline. The cells were precipitated with cold 10% trichloroacetic acid for 10 min and solubilized with 0.5 ml solubilization buffer (0.2 M NaOH, 40 μg/ml salmon sperm DNA) for 2 h at room temperature. The lysate was transferred to 5 ml Ecolume and the [3H]thymidine incorporated into the DNA of HT-29 cells was determined using a scintillation spectrometer (Beckman Coulter, Fullerton, Calif.).

[3] = test system: p27; assay: Western blot of p27 in HT-29 cells; format: cell-based, human; conditions: HT-29, data not shown
Protocol: The cells were incubated with different concentrations of pterostilbene for 1, 2 and 3 days, and cell proliferation was estimated by measuring [^3H]thymidine incorporated into DNA. […] In order to evaluate whether pterostilbene potentiates cell cycle arrest or apoptosis in HT-29 cells, the effect of pterostilbene on the proteins regulating the cell cycle and/or apoptosis pathways was examined. Cells treated with pterostilbene for 9 h or 18 h were harvested and protein samples were analyzed by Western blotting (FIG. 8B).
The cell culture conditions and the reagents used in this example were described in Example 32. Whole cell extracts were collected after the various treatments and analyzed by western blotting. The protein samples were separated on 4-15% SDS-PAGE gels (Biorad, Hercules, Calif.) followed by transfer to a polyvinylidene fluoride membrane. The membranes were blocked with 5% milk in Tris buffer for 1 h and then incubated with the appropriate primary antibody solutions overnight at 4° C. The membranes were washed with Tris buffer, and incubated with horseradish peroxidase conjugated secondary antibody solutions for 1 h at room temperature.
The protein bands were visualized using a chemiluminescence based kit from Amersham Biosciences (Buckinghamshire, UK). […]

[4] = test system: iNOS mRNA; assay: Quantitative RT-PCR of cytokine-induced iNOS mRNA in HT-29 cells; format: cell-based, human; conditions: 10 and 30 μM
Protocol: The cell culture conditions and the reagents used in this example were described in Example 32. The gene-mediated expression of iNOS and COX-2 are reported to be regulated at both the transcriptional and translational levels. In order to understand the effect of pterostilbene on cytokine-induced expression of proinflammatory enzymes and cytokines, RNA samples after treatment of HT-29 cells with cytokines and/or pterostilbene were analyzed by quantitative RT-PCR for the induction of mRNA levels of iNOS, COX-2, IL-1β, IFN-γ and TNF-α genes.
To determine the changes of mRNA levels by pterostilbene and cytokines, quantitative RT-PCR analysis was utilized, as described previously (Lee et al., Mol Pharmacol 2006; 69(6):1840-1848). Briefly, the cells were incubated with compounds for indicated period and the cells were then lysed using Trizol to extract RNA. RNA was reverse transcribed into cDNA using a high capacity cDNA archive kit (Applied Biosystems, Foster City, Calif.). The cDNA was used for quantitative PCR which was run on the ABI Prism […] sequence Detection System. The primers for the iNOS, COX-2, IFN-γ, TNF-α, IL-1β and GAPDH were obtained from Applied Biosystems (Foster City, Calif.).

[5] = rats; cited from earlier work

## COc1cc(/C=C/c2ccc(O)cc2)cc(OC)c1 [pterostilbene, (E)-4-(3,5-dimethoxystyryl)phenol]
[1]
  mucin MUC2 staining of colon mucosa: abundant secretion of mucin MUC2
[2]
  inhibition at 30 µM: 71 ± 3%
[3]
  induction of p27: no induction
[4]
  iNOS mRNA induction by the cytokine mixture: strongly inhibited
[5]
  serum glucose: lower serum glucose
